Source: patent US6911455B2, “Methods for preparing pharmaceutical formulations” (SmithKline Beecham Corporation, priority 1999, dated 2005)
Several values for one entry are separate records, joined by “and”; a condition that tells them apart may be missing. Identical values can stand only once.

Key:
[1] = Surface tension analysis (DuNouy ring method); assay type: physicochemical
Source text: Aggregation of the histamine releaser in the reference solution and the comparative solution(s) can be measured by measuring the surface tension of each of the reference solution and the comparative solution(s) using the DuNouy ring method, as described in PHYSICAL PHARMACY: PHYSICAL CHEMICAL PRINCIPLES IN THE PHARMACEUTICAL SCIENCES, Editors: Alfred Martin, James Swarbrick, Arthur Cammarata, Third Edition, Lea Et Febiger, Philadelphia, 1983. Surface tension may provide a measure of the critical micelle concentration of the histamine releaser in solution and for this reason is an indicator of aggregation of the histamine releaser in the solution. […]
The surface tension properties of the histamine liberating agent can be evaluated using the DuNouy ring method. […]
The force required to detach the ring in this manner is provided by a torsion wire and is recorded in dynes on a calibrated dial. […]
The tensiometer is calibrated with filtered water and the surface tension of a 50 mg/mL solution of Compound 1 in water is evaluated at room temperature.
The surface tension of each solution is evaluated at room temperature and the results are recorded in a curve of surface tension (y-axis) versus concentration of drug (x-axis).

[2] = Proton NMR relaxation rates (T1, T2) as measure of aggregation; assay type: physicochemical; settings: for T1 / T2: D2O saline (150 mM NaCl)
Source text: There are two types of NMR relaxation, spin-lattice and spin-spin relaxation, referred to as T1 and T2 values, respectively. T1 and T2 are rate constants which measure the relaxation of NMR magnetization back to equilibrium (hereinafter collectively referred to as “NMR relaxation rates”). For small molecules in what is called the extreme narrowing limit, both T1 and T2 increase in inverse proportion to the rotational tumbling rate tc, which, in turn, is directly proportional to the average size of the aggregate. Thus, for small molecules, increases in T1 and/or T2 rates with the addition of excipient to the solution containing the histamine releaser, in the absence of significant changes in the viscosity of the solution, indicates a decrease in aggregation.
Compound 1 and excipient (in the various amounts noted below) are dissolved in 200 μL of D2O with 0.15 M NaCl adjusted to pD 3.0 with NaOD and/or DCl for compound stability reasons. Deuterated saline solution is used in the reference solution because critical compound peaks (or signals) overlap when deuterated water is employed. Samples in a titration series are prepared by serial dilutions. All NMR spectra are recorded at 30° C. on a Varian Unity Plus 500 MHz spectrometer. Spectra are referenced to D2O at 4.65 ppm. All spectra are processed using Varian VNMR® software v6.1a. T1 and T2 relaxation rates are measured using the standard inversion-recovery and Carr-Purcell-Meiboom-Gill (CPMG) experiments respectively, both of which are provided with the Varian software. CPMG experiments are described in M. Bulsing, et al., J. Chem. Soc. Chem. Commun. 1201-3 (1981); R. Freeman et al., IN DYNAMIC NMR SPECTROSCOPY, eds. L. Jackman and F. Cotton (1975) pp. 131-162, Academic Press, London and New York; and D. Rabenstein, et al., J. Magn. Reson. 64:541-546 (1985).
A series of solutions with increasing concentrations of Compound 1 in D2O saline, pD 3.0 are prepared and the NMR relaxation rate constants measured. Both T1S and T2S are measured because the drug, with a molecular weight of 1064.51, could lie outside the extreme motional narrowing limit for NMR, in which case, T1S would be expected to decrease and T2S would be expected to increase with a decrease in aggregation. See, K. Wüthrich, NMR OF PROTEINS AND NUCLEIC ACIDS, (1986) John Wiley Sons, New York.
A series of solutions containing 80 mM Compound 1 with increasing concentrations of d4-citrate in D2O saline, pD 3.0, are prepared, and the NMR relaxation rates are measured. The data obtained is summarized in Table 2 and reported graphically in FIG. 2.
A series of solutions containing 80 mM Compound 1 and varying concentrations of CaCl2 and d4-citrate in D2O saline, pD 3.0, are prepared, and the NMR relaxation rates are measured.

[3] = 80 mM Compound 1, d4-citrate 0.78 mM, pD 3
[4] = 80 mM Compound 1, d4-citrate 1.56 mM, pD 3
[5] = 80 mM Compound 1, d4-citrate 3.13 mM, pD 3
[6] = 80 mM Compound 1, d4-citrate 6.25 mM, pD 3
[7] = 80 mM Compound 1, d4-citrate 12.5 mM, pD 3
[8] = 80 mM Compound 1, d4-citrate 25 mM, pD 3
[9] = 80 mM Compound 1, d4-citrate 50 mM, pD 3
[10] = 80 mM Compound 1, d4-citrate 100 mM, pD 3
[11] = vinyl proton, 20 mM Compound 1, pD 3, 30° C.
[12] = vinyl proton, 40 mM Compound 1, pD 3, 30° C.
[13] = vinyl proton, 80 mM Compound 1, no excipient (reference solution), pD 3, 30° C.
[14] = vinyl proton, 160 mM Compound 1, pD 3, 30° C.

## COc1cc2c(cc1OC)[C@H](c1cc(OC)c(OC)c(OC)c1)[N@@+](C)(CCCOC(=O)/C=C(\Cl)C(=O)OCCC[N@+]1(C)CCc3cc(OC)c(OC)cc3[C@H]1Cc1cc(OC)c(OC)c(OC)c1)CC2.[Cl-].[Cl-] [Compound 1, (Z)-2-chloro-1-{3-{(1R,2S)-6,7-dimethoxy-2-methyl-1-[(3,4,5-trimethoxyphenyl)methyl]-1,2,3,4-tetrahydro-2-isoquinolinio}propyl}-4-{3-[(1S,2R)-6,7-dimethoxy-2-methyl-1-(3,4,5-trimethoxyphenyl)-1,2,3,4-tetrahydro-2-isoquinolinio]propyl}-2-butenedioate dichloride]
[1]; 1-50 mg/mL in water, room temperature, FIG. 1
  surface tension versus concentration: concentration dependent surface tension lowering
[1]; in water
  critical micelle concentration: about 14 mM
[2]; 80 mM Compound 1, 50 mM d4-citrate, D2O saline, pD 3
  slowing of relaxation rates compared to the reference solution: at least 25%
[2]; 80 mM Compound 1, CaCl2 + d4-citrate, all but the two lowest concentrations of CaCl2 of Table 3
  change in the T1 value (slowing of the relaxation rate) compared to the reference solution: greater than 25%
[2]; 80 mM Compound 1, D2O saline, pD 3
  d4-citrate concentration giving maximal effect on decreasing aggregation: 50 mM
[2]; 80 mM Compound 1, d4-citrate 0.78 mM + CaCl2 100 mM, pD 3
  T1: 2.78 s
[2]; [3]
  T1: 1.53 s
  T2: 0.57 s
[2]; [4]
  T1: 1.65 s
  T2: 0.59 s
[2]; [5]
  T1: 1.69 s
  T2: 0.67 s
[2]; 80 mM Compound 1, d4-citrate 5 mM + CaCl2 3.13 mM, pD 3
  T1: 1.45 s
[2]; 80 mM Compound 1, d4-citrate 5 mM + CaCl2 6.25 mM, pD 3
  T1: 1.47 s
[2]; 80 mM Compound 1, d4-citrate 5 mM + CaCl2 12.5 mM, pD 3
  T1: 1.51 s
[2]; 80 mM Compound 1, d4-citrate 5 mM + CaCl2 25 mM, pD 3
  T1: 1.89 s
[2]; 80 mM Compound 1, d4-citrate 5 mM + CaCl2 50 mM, pD 3
  T1: 1.94 s
[2]; 80 mM Compound 1, d4-citrate 5 mM + CaCl2 100 mM, pD 3
  T1: 2.14 s
[2]; [6]
  T1: 1.24 s
  T2: 0.69 s
[2]; [7]
  T1: 2.09 s
  T2: 1.01 s
[2]; [8]
  T1: 2.03 s
  T2: 0.87 s
[2]; 80 mM Compound 1, d4-citrate 50 mM + CaCl2 100 mM, pD 3
  T1: 2.26 s
[2]; [9]
  T1: 2.13 s
  T2: 1.31 s
[2]; [10]
  T1: 1.96 s
  T2: 0.85 s
[2]; in saline (D2O saline, pD 3)
  critical micelle concentration: 40 to 80 mM
[2]; vinyl proton, 10 mM Compound 1, pD 3, 30° C.
  T1: 2.05 s
[2]; [11]
  T1: 2.30 s
  T2: 2.04 s
[2]; [12]
  T1: 2.49 s
  T2: 1.96 s
[2]; [13]
  T1: 1.20 s and 1.2 s
  T2: 0.38 s
[2]; [14]
  T1: 0.83 s
  T2: 0.13 s
